Reference: patent US20060026702A1, “Phosphoinositide 3-kinase mediated inhibition of GPCRs” (DUKE UNIVERSITY, priority 2002, published 2006)
Values belong to the compound of their own block, whether it stands above or below them.

Key:
β2AR = β2AR sequestration in HEK-293 cells by 125I-Cyanopindolol binding; format: cell-based; conditions: 1 μM isoproterenol; LY294002 100 μM 15 min before
Method: Determination of β2AR Sequestration in HEK-293 Cells by ^125I-Cyanopindolol (CYP) Binding—β2AR sequestration was performed as previously described. Briefly, HEK-293 cells were plated at a density of 2.5×10^6 cells/dish and transfected the following day with plasmids containing either the β2AR (150-250 ng), β2AR (250 ng) and HEAT domain (4 μg), PI3Kγ (4.0 μg) or ΔPI3Kγ (4.0 μg) cDNAs. Twelve hours after transfection cells were split into six well Falcon plates at a density of 750,000 cells/well. […] To determine the amount of internalized receptor, 100 μl aliquots of whole cells were added to 150 μl of binding buffer (75 mM Tris-HCl, 10 mM MgCl2, 5 mM EDTA (pH 7.5)). Total binding was determined in the presence of 175 pM ^125I-CYP alone, the number of internalized receptors were determined by using 175 pM ^125I-CYP plus 100 nM CGP12177, and non-specific binding was determined using 175 pM ^125I-CYP plus 1 μM propranolol. Sequestration was calculated as the ratio of (specific receptor binding of ^125I-CYP in the presence of CGP12177)/(specific receptor binding of ^125I-CYP in the absence of CGP12177).

PI3K = biological target: T1, PI3K (Homo sapiens, UniProt P48736, DEL30-30/Q459R); assay: βARK1 associated PI3K activity (lipid kinase assay) in transfected NIH-3T3 cells; format: cell-based, Mouse; conditions: 10 μM isoproterenol, 2 min; cells co-transfected with βARK1 and HA-PI3Kγ
T1 construct: expressed in transfected cells; host or cells: NIH-3T3
Method: Cell Culture—Mouse NIH-3T3 and HEK293 cells were maintained in either Iscoves modified Dulbecco's medium or minimal essential medium (MEM) supplemented with 10% fetal bovine serum and 1:100 penicillin-streptomycin (10,000 U/ml) at 37° C. Cells were seeded at a density of ˜1-3×10^5 cells/35 mm^2 dish and at 70-80% confluence were transiently transfected using the transfection reagent FUGENE6 (ROCHE) or calcium phosphate precipitation. Cells were harvested 24 hours after transfection, re-plated in triplicate, allowed to grow overnight and serum starved for 2-4 hours before agonist stimulation.
Cytosolic and Membrane Fractionation—Cell monolayers were scraped in 1 ml of buffer containing 25 mM Tris-HCl (pH 7.5), 5 mM EDTA, 5 mM EGTA, 1 mM phenylmethylsulfonyl fluoride, 2 μg/ml each of leupeptin and aprotinin and disrupted further by using Dounce homogenizer. Intact cells and nuclei were removed by-centrifugation at 1,000×g for 5 min. The collected supernatant was further subject to a centrifugation at 38,000×g for 25 min. The pellet was resuspended in lysis buffer (1% Nonidet P-40, 10% glycerol, 137 mM NaCl, 20 mM Tris-Cl (ph 7.4), 1 mM phenylmethylsulfonyl fluoride, 20 mM NaF, 1 mM sodium pyrophosphate, 1 mM sodium orthovanadate and 2 μg/ml each of aprotinin and leupeptin) and used as membrane fraction and the supernatant was diluted in lysis buffer and used as the cytosolic fraction.
Lipid Kinase Assays—Cells were lysed in lysis buffer and 2 mg cytosolic extract was used for immunoprecipitation with either the C5/1 monoclonal antibody directed against βARK1, the anti-FLAG M2 monoclonal antibody (Sigma) or antibodies to p110γ, or p110β (Santa Cruz Biotechnology) and protein G-agarose. Sedimented beads were then washed once with 1 ml of lysis buffer, thrice with 1 ml of phosphate-buffered saline (1× phosphate-buffered saline, 1% NP-40 and 100 μM sodium orthovanadate), thrice with 1 ml of Tris/LiCl (100 mM Tris-HCl (pH 7.4), 5 mM LiCl and 100 μM sodium orthovanadate) and twice with TNE (10 mM Tris Cl (pH 7.4), 150 mM NaCl, 5 mM EDTA and 100 μM sodium orthovanadate). Samples were then resuspended in 50 ml of TNE and 10 μl of 100 mM MgCl2 was added to each sample. The substrate, phosphatidylinositol (PI, Avanti), was prepared by drying 50 μl of the 10 mg/ml stock (PI in chloroform) in an eppendorf tube with a stream of air and adding 250 μl of TE (10 mM Tris Cl (pH 7.4) and 1 mM EDTA). The PI was then suspended by sonication in an ice bath for 3 minutes. 10 p, of the PI solution and 11 μl of ATP solution (440 μM cold ATP and 1 μCi/μl of [γ-32P]ATP) were added to each sample. […] Autoradiography of dried plates was used to detect signals, and PIP was quantified by phosphorimaging. […] Values are expressed as fold increase/decrease relative to wild-type/control.

β2AR complex = assay: Recruitment of AP-2 adaptin and clathrin to the agonist-stimulated β2AR complex (immunoprecipitation, immunoblot); format: cell-based; conditions: saponin-permeabilized cells, isoproterenol 5 min; compared to similar concentration of Ptdlns (4,5) P2
Method: Immunoblotting and Detection—Immunoblotting and detection of PI3K, βARK1, HA-PI3Kγ, HA-ΔPI3Kγ, Myc-PI3Kα, FLAG-HEAT, PI3KΔHEAT-HA, FLAG-β2AR, HA-β2AR, β-adaptin and clathrin was carried out as previously described. Immunoprecipitating antibodies were added to 500 μg of cell lysate in lysis buffer followed by the addition of 35 μl of 1:1 Protein A- or G-agarose. Samples were rocked overnight at 4° C. then centrifuged at 12,000×g for 5 min. Immunoprecipitates were washed twice with lysis buffer, twice with 1×PBS and resuspended in 1×SDS-gel loading buffer. Proteins were resolved by SDS-polyacrylamide gel electrophoresis and blotted on to PVDF membrane (Bio-Rad). Blots were incubated with antibodies recognizing PI3K, Myc (Santa-Cruz), β-adaptin, clathrin heavy chain (BD Transduction Laboratories), HA (Roche Molecular Biochemicals) and FLAG (Sigma) at 1:2000 dilution and the βARK1 monoclonal antibody at 1:10,000 dilution. Blots were subsequently incubated with appropriate secondary antibody (1:2000 dilution) conjugated to horseradish peroxidase (Amersham Pharmacia Biotech) and detection was carried out using enhanced chemiluminescence. […]
The present inventors determined that βARK1-mediated localization of PI3K within the activated receptor complex is responsible for the generation of D-3 phosphatidylinositols necessary for the efficient recruitment of adaptin to the P2AR complex. […]

T1 sequence (P48736 with tags, fused parts or gaps DEL30-30/Q459R): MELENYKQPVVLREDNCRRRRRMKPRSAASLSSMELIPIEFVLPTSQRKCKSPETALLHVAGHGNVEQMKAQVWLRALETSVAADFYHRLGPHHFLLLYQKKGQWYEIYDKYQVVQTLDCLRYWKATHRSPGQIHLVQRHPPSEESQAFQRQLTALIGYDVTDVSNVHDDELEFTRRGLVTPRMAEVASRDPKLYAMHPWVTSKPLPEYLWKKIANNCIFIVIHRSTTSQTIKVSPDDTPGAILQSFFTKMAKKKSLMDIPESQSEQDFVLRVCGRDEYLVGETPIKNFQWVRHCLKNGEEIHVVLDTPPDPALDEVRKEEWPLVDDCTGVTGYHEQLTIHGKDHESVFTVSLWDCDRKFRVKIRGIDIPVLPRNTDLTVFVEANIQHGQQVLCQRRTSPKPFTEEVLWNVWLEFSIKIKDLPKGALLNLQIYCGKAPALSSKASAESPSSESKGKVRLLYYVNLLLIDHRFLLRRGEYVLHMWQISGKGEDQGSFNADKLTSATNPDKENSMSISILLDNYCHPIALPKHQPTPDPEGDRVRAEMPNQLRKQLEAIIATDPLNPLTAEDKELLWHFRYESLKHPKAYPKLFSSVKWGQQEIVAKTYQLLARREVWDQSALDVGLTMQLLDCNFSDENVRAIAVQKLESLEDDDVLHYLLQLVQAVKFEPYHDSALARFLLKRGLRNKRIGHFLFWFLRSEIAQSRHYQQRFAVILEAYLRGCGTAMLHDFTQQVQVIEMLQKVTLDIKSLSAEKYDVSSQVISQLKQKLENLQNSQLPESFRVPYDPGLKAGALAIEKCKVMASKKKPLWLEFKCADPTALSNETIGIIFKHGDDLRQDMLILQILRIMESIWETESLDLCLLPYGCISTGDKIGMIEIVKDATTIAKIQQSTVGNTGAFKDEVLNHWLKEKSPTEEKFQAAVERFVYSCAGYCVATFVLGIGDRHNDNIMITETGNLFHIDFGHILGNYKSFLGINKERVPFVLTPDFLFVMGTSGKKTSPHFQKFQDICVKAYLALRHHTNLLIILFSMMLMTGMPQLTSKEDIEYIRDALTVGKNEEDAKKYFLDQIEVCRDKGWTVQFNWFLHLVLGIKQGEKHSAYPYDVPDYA

Compound: O=c1cc(N2CCOCC2)oc2c(-c3ccccc3)cccc12 [LY294002, reference compound]
- reduction in sequestration (β2AR): 50%

- βARK1 associated PI3K activity in the cytosolic fraction after agonist (PI3K): little change
- βARK1 associated PI3K activity in the membrane fraction after agonist (PI3K): significant increase
Compound: CC(C)NCC(O)c1ccc(O)c(O)c1 (stereo not shown) [isoproterenol, reference compound]

- efficiency of recruitment of adaptin to the receptor (β2AR complex): significantly enhanced
Compound: phosphatidylinositol 3,4,5-triphosphate [Ptdlns (3,4,5) P3, reference compound]
